No end group written: not given here.
What was measured:
Assay type in all cases: cell-based
KS Y-1 cells [1] = test: KS cell migration assay, fibronectin-coated transwell; conditions: 50,000 KS Y-1 cells/well, 25 ng/mL bFGF, overnight
Description: (§1) The assays were done in double chamber wells separated by […] membrane. Chemotaxis was induced by bFGF (25 ng/mL) in the lower chamber. Endothelial cells or KS cells (5×10^4/mL) were placed in the upper chamber in the presence and absence of test polypeptides. Taxol at 10 ng/mL was used as a known inhibitor of migration. Cell migration across the membrane was quantitated after an overnight incubation.
(§2) Angiogenesis is mediated by complex biochemical processes including degradation of the basement membrane under existing blood vessel endothelial cells, followed by proliferation and migration of endothelial cells, followed by formation of capillary loops, and recruitment of vascular smooth muscle cells to encase the newly formed vessels and provide stability. KS and endothelial cell migration in the presence of Saposin B was studied in transwell culture plates with 8 μm pore membranes (Costar, Cambridge, Mass.).
Briefly, wells were coated with fibronectin (25 μg/mL) overnight, and endothelial cells or KS cells were plated in the upper chamber with 100 μL of DMEM/0.4% FCS. 500 μL of DMEM/0.4% FCS was added to the lower chamber and incubated at 37° C. for one hour. The test polypeptides, at various concentrations, were added to the upper chamber, and chemotactic agents (VEGF or bFGF at 20 ng/mL) were added to the lower cell-culture chambers. The plates were incubated for 5 hr at 37° C. and the cells crossing the fibronectin-coated membrane were counted after wiping the cells off the membrane in the upper chamber with a cotton swab.
The cells that traversed the membrane were fixed with Diff-Quik stain according to the manufacturer's instruction (Dade Diagnostics Inc., Aguada, PR). The cells were counted under a microscope at 320× in four randomly selected fields. The experiments were done in duplicate and repeated at least three times.

KS Y-1 cells [2] = test: KS Y-1 cell proliferation assay (MTT); conditions: concentration not printed, 5 days, MTT
Description: (§3) To determine if Saposin B polypeptides had anti-angiogenic activity, a series of overlapping polypeptides were synthesized and tested in the KS Y-1 cell proliferation assay. The overlapping polypeptides are SEQ ID NOS:13 though 42. Cell Proliferation assays in either KS cells or fibroblast. Cells were plated in 48 well plates at equal numbers in appropriate culture medium. Cells were treated with the test compounds at various concentrations on day one, and on day 3. MTT was done on day 5. KS cells were used to represent the activated endothelial cells, while fibroblast cells represent the control cells. The results are remarkable for the lack of toxicity to the fibroblast relative to the activated endothelial cells/KS cells.

T1 cells = test: Fibroblast proliferation assay (MTT); conditions: 5000 T1 cells/well, 7 days
Description: as §3, with “MTT was done on day 5.” left out

[3] = Activity of truncated recombinant Saposin B (FIG. 1C); conditions: cell type not given
Source text: FIG. 1C: Activity of truncated recombinant Saposin B. Saposin (Sap) B 1-69 (consisting of the first 69 amino acids), Sap B 1-42 (consisting of the first 42 amino acids), Sap B 11-81 (consisting of 11-81 amino acids and thus lacking the first 10 amino acids).

endothelial cells = test: Endothelial cell migration assay, fibronectin-coated transwell; conditions: chemotaxis induced by VEGF or bFGF
Description: as §1
as §2, with “KS and endothelial cell migration in the presence of Saposin B was studied in transwell culture plates with 8 μm pore membranes (Costar, Cambridge, Mass.).” left out
Briefly, wells were coated with fibronectin (25 μg/mL) overnight, and endothelial cells or KS cells were plated in the upper chamber with 100 μL of DMEM/0.4% FCS. […] The plates were incubated for 5 hr at 37° C. and the cells crossing the fibronectin-coated membrane were counted after wiping the cells off the membrane in the upper chamber with a cotton swab.
The cells that traversed the membrane were fixed with Diff-Quik stain according to the manufacturer's instruction (Dade Diagnostics Inc., Aguada, PR). The cells were counted under a microscope at 320× in four randomly selected fields. […]

GDVCQDCIQMV [SEQ ID NO:19]
% Cells Migrating Through Membrane (of Control) (KS Y-1 cells [1]; 1 μg/mL): 78.23 % (of Control) | % Cells Migrating Through Membrane (of Control) (KS Y-1 cells [1]; 50 μg/mL): 20.98 % (of Control) | % Cells Migrating Through Membrane (of Control) (KS Y-1 cells [1]): 40.32 % (of Control) | Cell Proliferation Activity (% of control), KSY-1 (KS Y-1 cells [2]; first of two KSY-1 value columns): 28 % of control | Cell Proliferation Activity (% of control), KSY-1 (KS Y-1 cells [2]; second of two KSY-1 value columns): 8 % of control | Fibroblast Proliferation, % of Control (T1 cells; 1 μg/mL): 91.3 % of Control | Fibroblast Proliferation, % of Control (T1 cells; 10 μg/mL): 91.3 % of Control | Fibroblast Proliferation, % of Control (T1 cells; 50 μg/mL): 82.6 % of Control

Sap B 1-42: truncated recombinant Saposin B consisting of the first 42 amino acids (GDVCQDCIQMVTDIQTAVRTNSTFVQALVEHVKEECDRLGPG; ends and bridges not checked; cysteine pairing not given here; UniProt P07602 195-236, looked up, fragment)
growth inhibition by truncated recombinant Saposin B [3]: dose dependent growth inhibition

CC(=O)O[C@H]1C(=O)[C@@]2(C)[C@H]([C@H](OC(=O)c3ccccc3)[C@]3(O)C[C@H](OC(=O)[C@H](O)[C@@H](NC(=O)c4ccccc4)c4ccccc4)C(C)=C1C3(C)C)[C@]1(OC(C)=O)CO[C@@H]1C[C@@H]2O [paclitaxel, reference compound]
inhibition of endothelial cell migration (endothelial cells): did not completely inhibit
